Results on 18 compounds are retold here after patent US20090263492A1, “Diagnostic Methods and Genetic Markers for Alzheimer Disease” (priority 2006, published 2009).

In general, melting point refers to the temperature of the solid-liquid transition.

A value given as a limit tells only on which side of the number the result lay.

In the first data set the test system is macrophages of AD patients. Kind of data set: Phagocytosis of FITC-amyloid-beta (1-42) by macrophages of AD patients. In kind it is cell-based, human. The following applies: in vitro treatment during Aβ phagocytosis, fluorescence/confocal microscopy. The text has this: (§1) Peripheral blood mononuclear cells (PBMC's) and macrophages. AD patients were recruited at the time of enrollment in a double-blind study of curcumin Complex 3 in progress at UCLA. The diagnostic criteria for AD satisfied the National Institute of Neurological and Communicative Disorders and the AD and Related Disorders Association criteria for probable Alzheimer's disease. Normal age-matched control subjects were recruited. PBMC's were isolated by the Ficoll Hypaque gradient technique from venous blood. To prepare macrophage slide cultures, 50,000 PBMC's were cultured in each well of an 8-chamber polystyrene vessel glass slide in Iscove's medium with 10% autologous serum until differentiated into adherent macrophages (7-14 days).
Phagocytosis assay and confocal microscopy. Macrophages were exposed to FITC-amyloid-beta (1-42) (2 μg/ml) overnight, fixed with 4% paraformaldehyde, permeabilized with 0.1% Triton X-100, blocked with 1% BSA in PBS and stained with Rab 5 or EEA1 antibodies by indirect immunofluorescence; lysosomes were stained intravitally by the Lyso-Tracker probe; macrophages were stained using anti-CD68; neurons were stained using anti-NeuN. The preparations were examined using fluorescence and confocal microscopy.
Ability of monocytes to clear Aβ in the brain. Co-culture of freshly isolated monocytes with sections of AD frontal lobe to test the ability of monocytes to clear Aβ in the brain was done. One third of control monocytes became saturated with Aβ in 2 days and 100% in 4 days. […] Apoptosis of macrophages treated with Aβ was done with the SR-VAD-FMK polycaspase assay. Differentiated macrophages were treated with curcuminoids or analogs in the medium overnight and were then exposed to FITC-Aβ (1-42) to 2.5 μg/ml, incubated for 24 or 48 h and examined by fluorescence or confocal microscopy.
Curcuminoids reverse defective phagocytosis of amyloid-beta by macrophages of individual AD patients. […] Macrophages were visualized using anti-CD68 or fluorescent phalloidin with a fluorescence microscope.
For the compound “IGF-1: the hormone insulin-like growth factor (IGF-I)”, the “effect on Aβ phagocytosis/uptake by AD macrophages” value is reported as “improves Aβ phagocytosis”.

Another data set concerns control macrophages. Kind of data set: Phagocytosis / uptake of FITC-Aβ by control macrophages. In kind it is cell-based, human. To be noted: Example 5; control or AD macrophages not specified.
Excerpt: as §1
Phagocytosis assay and confocal microscopy. […] The preparations were examined using fluorescence and confocal microscopy. […]
Curcuminoids reverse defective phagocytosis of amyloid-beta by macrophages of individual AD patients. […] Macrophages were visualized using anti-CD68 or fluorescent phalloidin with a fluorescence microscope. […]
Turning to Fucoidan, the “block of uptake of Aβ” value is on record as “did not block uptake of Aβ”.

Tested on in the next data set: not given
Experiment: not given
Settings: not given
Compound `COc1ccc(C=CC(=O)C=C(O)C=Cc2ccc(OC)c(O)c2)cc1O` [Compound 5g, 5-Hydroxy-1,7-bis-(3-hydroxy-4-methoxy-phenyl)-hepta-1,4,6-trien-3-one] came in with a melting point of 182.8 °C.

Another data set has as its system Mgat3 transcription. Kind of data set: qPCR of Mgat3 transcription in PBMC's from AD patients cultured with Aβ and test agent. The class given is cell-based, human. Details: key to Relative Activity: relative ratio of Mgat3 transcription in AD/Mgat3 transcription in control cells: Dash (−) indicates minimal effect; (+) indicates a ratio of 1.0-1.5; (++) indicates a ratio of 1.5-2.0; (+++ to ++++) indicates a ratio of 2.0 and above; (+++ to ++++) indicates a ratio of 2.0 and above. The following applies: Homo sapiens; curcumins 0.1 uM, PBMC's from AD patients cultured overnight with Aβ, 2 hours incubation, qPCR; read-out: Relative Activity: relative ratio of Mgat3 transcription in AD/Mgat3 transcription in control cells. The method, then:
RNA Isolation and qPCR. RNA was isolated as above from PBMC's (10 million) of each subject, which were cultured overnight with or without Aβ (2 μg/ml); and cDNA was synthesized using the iSCRIPT cDNA Synthesis Kit. The expression levels of the genes of interest were tested by qPCR on a real-time PCR detector and normalized to the levels of the housekeeping gene 36B4 with the following primers: […]
SYBR Green reactions were carried out with the IQ SYBR Green mix. Reactions were run on a Continuous Fluorescence detector and analyzed. The relative quantities of the gene tested per sample were calculated against 36B4 using the ΔΔC(T) formula as previously described. The results are expressed as log [MGAT (or TLR) RNA (with Aβ)/MGAT (or TLR) RNA (without Aβ)] for each specimen. For evaluation of curcumins or curcumin analogs the above assay was used. Curcumins (0.1 uM) were added to PBMC's from AD patients cultured overnight with ±Aβ as above. After 2 hours of incubation with the curcumin or analog, RNA was isolated and cDNA was synthesized as above. The expression levels of Mgat3 or TLR transcription was quantified and normalized to the levels of housekeeping genes and compared to cells treated with curcumin or analogs with or without Aβ vs. untreated cells. The amount of Mgat3 (or TLR) RNA with Aβ and test agent/Mgat3 (or TLR) RNA withal alone)] for each cell preparation in the presence of test agent was determined. The ratio was used to determine the potency of the agent tested. Potent compounds had elevated ratios (>1.5) and were used to rank the relative activity of each test agent (Table 2).
Curcumins. […] Crude natural product derived materials (i.e., curcuminoids) enhance phagocytosis of Aβ by macrophages from AD patients in approximately 50% of the cases examined. […] The material was purified to near homogeneity and identified by LCMS as bisdesmethoxycurcumin on the basis of its molecular ion and fragmentation pattern. To verify the biological activity of this minor constituent, bisdesmethoxycurcumin was chemically synthesized and tested in the phagocytosis and transcription assays described above (see Example 4). Compared with curcumin, both the bisdesmethoxycurcumin material isolated by chromatography and the chemically synthesized bisdesmethoxycurcumin material optimally stimulated phagocytosis at 0.1 μM. To determine whether functional improvement would be accompanied by biochemical changes, we tested transcriptional up-regulation of MGA T3 and TLR's in PBMC's from AD patients and controls in the presence of Aβ with bisdesmethoxycurcumin (0.1 μM) in comparison to Aβ alone. […] Thus, curcumins (0.1 uM) were added to PBMC's from AD patients cultured overnight with Aβ as above. After 2 hours of incubation, RNA was isolated and cDNA was synthesized. The expression levels of Mgat3 or TLR transcription was quantified and normalized to the levels of housekeeping genes and compared to cells treated with curcumin or analogs without Aβ. The amount of Mgat3 (or TLR) RNA with test agent and Aβ)/Mgat3 (or TLR) RNA (with Aβ alone)] for each cell preparation in the presence of test agent was determined. The ratio was used to determine the potency of the agent tested. Potent compounds had elevated ratios (>1.5) and were used to rank the relative activity (Table 2).
Mgat3 and TLR transcription in cells from AD and control patients. We tested by qPCR Mgat3 and/0or TLR transcription in cells from AD patients and compared the results to those obtained from age-matched controls (Table 2). As discussed above, activation or up-regulation of macrophage Mgat3 or TLR's results in many functional outcomes, including the enhancement of […] and removal of Aβ, increased apoptosis, secretion of inflammatory cytokines, and other anti-AD antimicrobial activities. […] Thus, the ratio of Mgat3 or TLR transcription upon Aβ stimulation of AD versus control PBMCs provides an indicator and sensitive method to test the in vitro efficacy of drug candidates. […]
Consider `O=C(C=Cc1cccc(O)c1)C=C(O)C=Cc1cccc(O)c1` [Compound 5e, 5-Hydroxy-1,7-bis-(3-hydroxy-phenyl)-hepta-1,4,6-trien-3-one], for which the fold induction at 0.1 µM lay within 1 to 1.5.
Still for that read-out and setting: then `CN(C)c1ccc(C=CC(=O)C=C(O)C=Cc2ccc(N(C)C)cc2)cc1` [Compound 5f, 1,7-Bis-(4-dimethylamino-phenyl)-5-hydroxy-hepta-1,4,6-trien-3-one], with no less than 2; and `COc1ccc(C=CC(=O)C=C(O)C=Cc2ccc(OC)c(O)c2)cc1O` [Compound 5g, 5-Hydroxy-1,7-bis-(3-hydroxy-4-methoxy-phenyl)-hepta-1,4,6-trien-3-one], with 1 to 1.5.
The same measure, in the same setting: under `COc1cc(C=CC(=O)C=C(O)C=Cc2ccc(O)c(OC)c2)ccc1O` [Compound 5h, 5-Hydroxy-1,7-bis-(4-hydroxy-3-methoxy-phenyl)-hepta-1,4,6-trien-3-one] stands 1 to 1.5; under `COc1cc(O)ccc1C=CC(=O)C=C(O)C=Cc1ccc(O)cc1OC` [Compound 5i, 5-Hydroxy-1,7-bis-(4-hydroxy-2-methoxy-phenyl)-hepta-1,4,6-trien-3-one], 1.5 to 2.
Same read-out and setting: under `COc1ccccc1C=CC(=O)C=C(O)C=Cc1ccccc1OC` [Compound 5l, 5-Hydroxy-1,7-bis-(2-methoxy-phenyl)-hepta-1,4,6-trien-3-one] stands no less than 2; under `O=C(/C=C(O)/C=C/c1ccccc1)/C=C/c1ccccc1` [Compound 6, (1E,4Z,6E)-5-hydroxy-1,7-diphenylhepta-1,4,6-trien-3-one], 1 to 1.5.
`CC(C)(C)c1ccc(/C=C/C(=O)/C=C(O)/C=C/c2ccc(C(C)(C)C)cc2)cc1` [Compound 10, (1E,4Z,6E)-1,7-bis(4-tert-butylphenyl)-5-hydroxyhepta-1,4,6-trien-3-one]: the fold induction at 0.1 µM was in the range of 1 to 1.5.

Staying with this data set, now noted: curcumins 0.1 uM, PBMC's from AD patients cultured overnight with Aβ, 2 hours incubation, qPCR.
Consider `COc1ccc(C=CC(=O)C=C(O)C=Cc2ccc(OC)cc2)cc1` [Compound 5b, 5-Hydroxy-1,7-bis-(4-methoxy-phenyl)-hepta-1,4,6-trien-3-one], for which the “Relative Activity: relative ratio of Mgat3 transcription in AD/Mgat3 transcription in control cells” value (“Relative Activity: relative ratio” below) is on record as “−”.
In the case of `CC(=O)Oc1ccc(C=CC(=O)C=C(O)C=Cc2ccc(OC(C)=O)cc2)cc1` [Compound 5c, Aceticacid 4-[7-(4-acetoxy-phenyl)-5-hydroxy-3-oxo-hepta-1,4,6-trienyl]-phenyl ester], the “Relative Activity: relative ratio” value is “−”.
The same measure, in the same setting: then `CC(C)(C)C(=O)Oc1ccc(C=CC(=O)CC(=O)C=Cc2ccc(OC(=O)C(C)(C)C)cc2)cc1` [Compound 5d, 2,2-Dimethyl-propionic acid 4-{7-[4-(2,2-dimethyl-propionyloxy)-phenyl]-3,5-dioxo-hepta-1,6-dienyl}-phenyl ester], with “−”.
Still for that read-out and setting: under `COc1ccc(C=CC(=O)C=C(O)C=Cc2ccc(OC)cc2O)c(O)c1` [Compound 5j, 5-Hydroxy-1,7-bis-(2-hydroxy-4-methoxy-phenyl)-hepta-1,4,6-trien-3-one] stands “−”.
Regarding `O=C(C=Cc1ccc(O)c(Cl)c1)C=C(O)C=Cc1ccc(O)c(Cl)c1` [Compound 5k, 1,7-Bis-(3-chloro-4-hydroxy-phenyl)-5-Hydroxy-hepta-1,4,6-trien-3-one], the “Relative Activity: relative ratio” value was “−”.
On the same count and under the same terms, under `Cc1ccc(/C=C/C(=O)/C=C(O)/C=C/c2ccc(C)cc2)cc1` [Compound 7] stands “++ ((++) indicates a ratio of 1.5-2.0)”; under `O=C(/C=C(O)/C=C/c1cccc(F)c1)/C=C/c1cccc(F)c1` [Compound 8], “+ ((+) indicates a ratio of 1.0-1.5)”; under `CSc1ccc(/C=C/C(=O)/C=C(O)/C=C/c2ccc(SC)cc2)cc1` [Compound 9], “++++ ((+++ to ++++) indicates a ratio of 2.0 and above)”.
